Assay results from patent publication US6919455B2, “Purine derivative dihydrate, drugs containing the same as the active ingredient and intermediate in the production thereof” (Mitsubishi Chemical Corporation, priority 1999, dated 2005).

Test system: PDE IV
Assay: PDE IV inhibiting effect (3H-cAMP hydrolysis, crude enzyme from U937 cells)
Conditions: read-out: IC50 (concentration for 50% inhibition) against PDE IV; crude enzyme from cytoplasmic fraction of human monocyte-like U937 cells; 0.4 μM 3H-cAMP; pH 8.0; 30° C., 15 minutes
Procedure: The crude enzyme was purified from a cytoplasmic fraction of human monocyte-like cell strain U937 by using a Q-Sepharose column according to the method of Nicholson et al. (Br. J. Pharmacol., 97, 889 (1989)]. The enzymatic activity was determined by performing a reaction using 0.4 μM ^3H-cAMP as the substrate in 50 mM Tris buffer (pH 8.0) containing 0.1 mg/ml BSA, 1 ml of EDTA and 5 mM MgCl2 at 30° C. for 15 minutes, and then separating the produced ^3H-5′-AMP using a cation exchange column and measuring its radioactivity according to the method of Hidaka et al. [Biochem. Med., 10, 301 (1974)]. After a test compound was added, the reaction mixture was incubated at 30° C. for 15 minutes, and then added with the substrate.

IC50: 3.41 nM
Structure (SMILES): COc1ccc(Cn2c(C)nc3c(C)nc(OCCCc4cc[n+]([O-])cc4)nc32)cc1OC1CCCC1 [dihydrate of the present invention, Dihydrate of 4-[[9-[(3-cyclopentyloxy-4-methoxy)benzyl]-6,8-dimethylpurine]-2-yl-3-oxypropyl]pyridine N-oxide]
